These results are taken from patent US20240279302A1, “OLFACTORY RECEPTOR EXPRESSING METHOD AND RESPONSE MEASUREMENT METHOD” (Kao Corporation, priority 2021, published 2024).

The target of one test is T1, consensus OR2T1 (Homo sapiens, UniProt O43869, C277R/D138G/I77L/L118F/L265I/L324F/N134D/Q276H/S299T).
T1 construct: expressed in transfected cells; host or cells: HEK293
T1 sequence (O43869 52-369 I77L/L118F/N134D/D138G/L265I/Q276H/C277R/S299T/L324F): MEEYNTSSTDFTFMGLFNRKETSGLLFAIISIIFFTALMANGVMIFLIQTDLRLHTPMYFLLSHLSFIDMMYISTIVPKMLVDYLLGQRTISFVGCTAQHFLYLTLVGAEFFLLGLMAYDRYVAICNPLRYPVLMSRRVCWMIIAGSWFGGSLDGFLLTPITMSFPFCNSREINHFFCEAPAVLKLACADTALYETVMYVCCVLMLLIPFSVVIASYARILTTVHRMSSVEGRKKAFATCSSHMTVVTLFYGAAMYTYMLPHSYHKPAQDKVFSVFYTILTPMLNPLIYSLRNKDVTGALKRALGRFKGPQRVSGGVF
As to the kind of experiment: Luciferase assay, sulfur compounds. Format: cell-based.

For a further test, the target named is T2, consensus OR2T27 (Homo sapiens, UniProt Q8NH04, A21T/G216A/G235R/H131R/I13V/I140V/K45M/L36V/R69M/S88G/T37I/V304A/V305L/V43T/V8M/W142L).
T2 construct: expressed in transfected cells; host or cells: HEK293
T2 sequence (Q8NH04 with tags, fused parts or gaps with the stated changes): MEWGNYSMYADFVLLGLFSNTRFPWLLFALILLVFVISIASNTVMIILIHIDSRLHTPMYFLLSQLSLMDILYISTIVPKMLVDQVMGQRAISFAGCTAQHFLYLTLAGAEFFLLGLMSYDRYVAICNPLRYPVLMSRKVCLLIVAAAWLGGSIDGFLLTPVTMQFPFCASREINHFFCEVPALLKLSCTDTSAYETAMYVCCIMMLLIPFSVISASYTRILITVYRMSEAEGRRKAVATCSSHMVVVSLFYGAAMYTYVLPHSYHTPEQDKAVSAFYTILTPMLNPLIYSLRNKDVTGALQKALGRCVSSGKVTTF
As to the kind of experiment: Luciferase assay, sulfur compounds. Format: cell-based. The note with it: in the presence of a copper ion.

Another test concerns the target T3, consensus OR2T5 (Homo sapiens, UniProt Q6IEZ7, A76M/C55S/F147L/I190K/I217V/K41M/L14S/L223S/L224F/L249M/L87M/M19V/M302T/M75V/R23S/R24Q/R6W/S169T/S32C/S61T/T121A/T189M/V229I/V48I/V96I/W176R).
T3 construct: expressed in transfected cells; host or cells: HEK293
T3 sequence (Q6IEZ7 with tags, fused parts or gaps R6W/L14S/M19V/R23S/R24Q/S32C/K41M/V48I/C55S/S61T/M75V/A76M/L87M/V96I/T121A/F147L/S169T/W176R/T189M/I190K/I217V/L223S/L224F/V229I/L249M/M302T): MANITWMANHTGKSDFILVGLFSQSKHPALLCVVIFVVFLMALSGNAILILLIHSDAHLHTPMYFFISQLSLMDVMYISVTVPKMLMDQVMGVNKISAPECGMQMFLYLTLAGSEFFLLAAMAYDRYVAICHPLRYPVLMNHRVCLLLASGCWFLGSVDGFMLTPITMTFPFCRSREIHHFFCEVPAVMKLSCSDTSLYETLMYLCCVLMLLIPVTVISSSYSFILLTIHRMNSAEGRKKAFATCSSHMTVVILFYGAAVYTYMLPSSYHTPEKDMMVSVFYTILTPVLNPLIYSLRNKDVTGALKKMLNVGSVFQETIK
As to the kind of experiment: Luciferase assay, sulfur compounds. Format: cell-based.

A further test addresses T4, consensus OR4E2 (Homo sapiens, UniProt Q8NGC2, A48T/F285L/G158V/H228Q/I116T/I142V/I197M/I47V/L183P/M219T/M25I/M36V/Q234R/R21W/S209T/S40L/S54R/T201S/T49I/T99A/V118M/V214L).
T4 construct: Flag (N); Rho tag (N); expressed in transfected cells; host or cells: HEK293
T4 sequence (Q8NGC2 1-312 R21W/M25I/M36V/S40L/I47V/A48T/T49I/S54R/T99A/I116T/V118M/I142V/G158V/L183P/I197M/T201S/S209T/V214L/M219T/H228Q/Q234R/F285L limits assumed): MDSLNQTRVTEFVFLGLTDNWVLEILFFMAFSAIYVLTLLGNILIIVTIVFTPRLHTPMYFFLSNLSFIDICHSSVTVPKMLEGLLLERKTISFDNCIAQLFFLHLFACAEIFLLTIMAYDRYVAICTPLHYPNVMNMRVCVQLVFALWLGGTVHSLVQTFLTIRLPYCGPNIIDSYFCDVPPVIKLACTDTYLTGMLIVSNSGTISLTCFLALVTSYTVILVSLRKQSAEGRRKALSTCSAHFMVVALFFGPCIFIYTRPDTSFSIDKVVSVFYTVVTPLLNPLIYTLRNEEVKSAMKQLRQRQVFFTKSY
As to the kind of experiment: Luciferase assay, sulfur compounds. Format: cell-based. The note with it: for dose dependence of the response of consensus OR4E2 / response of consensus OR4E2: in the presence of a copper ion.

Another test deals with T5, OR2T11 (Homo sapiens, UniProt Q8NH01).
T5 sequence (Q8NH01 1-316): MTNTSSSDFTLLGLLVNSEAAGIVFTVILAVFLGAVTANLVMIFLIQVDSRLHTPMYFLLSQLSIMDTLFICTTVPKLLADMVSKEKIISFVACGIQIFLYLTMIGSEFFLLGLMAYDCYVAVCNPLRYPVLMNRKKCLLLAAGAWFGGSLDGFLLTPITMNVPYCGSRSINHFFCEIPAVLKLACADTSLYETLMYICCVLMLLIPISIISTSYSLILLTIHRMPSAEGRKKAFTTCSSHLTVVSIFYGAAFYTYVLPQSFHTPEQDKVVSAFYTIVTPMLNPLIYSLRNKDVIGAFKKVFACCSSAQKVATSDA
As to conditions: cited from earlier work.

[1] abbreviates: in the presence of a copper ion.
The mark [2] stands for this setting: Block E et al., Nat. Prod. Rep. 2017.

Where two headings read alike, the source gives them in different places.

With `CSSC` [dimethyl disulfide], the “response of consensus OR2T1” value on consensus OR2T1 (setting [1]) is reported as “responded”. The “response of consensus OR2T27” value at consensus OR2T27 is recorded as “responded”. The “response of consensus OR2T5” value on consensus OR2T5 (setting [1]) is recorded as “responded”. At consensus OR4E2, the EC50 is 397 µM, the “dose dependence of the response of consensus OR4E2” value was “dose-dependent response” and the “response of consensus OR4E2” value is “responded”. Besides, the “response of OR2T11” value at OR2T11 (setting [2]) is given as “responds”.
`CS` [methyl mercaptan]: the concentration giving a half-maximal response (EC50) at consensus OR2T1 is 33 µM. At consensus OR2T1 (setting [1]), the “dose dependence of the response of consensus OR2T1” value is “dose-dependent response” and the “response of consensus OR2T1” value is “responded”. In addition, at consensus OR2T27, the “response of consensus OR2T27” value is “responded”. Also, the midpoint of the response at consensus OR2T5 (consensus OR2T5, 30 μM CuCl2), the EC50, lay at 217 µM. At consensus OR2T5 (setting [1]), the “dose dependence of the response of consensus OR2T5” value is “dose-dependent response” and the “response of consensus OR2T5” value is “responded”. Also, on consensus OR4E2, the midpoint of the response, the EC50, lay at 250 µM; the “dose dependence of the response of consensus OR4E2” value is “dose-dependent response”; the “response of consensus OR4E2” value is reported as “responded”. For the same molecule, the “response of OR2T11” value on OR2T11 (setting [2]) was “responds”. Further, the “response of OR2T11” value at OR2T11 (in the presence of a metal ion (JP-B-6122181)) is given as “respond”.
For `CSSSC` [dimethyl trisulfide], the “response of consensus OR2T1” value at consensus OR2T1 (setting [1]) is given as “responded”. Further, at consensus OR4E2 (consensus OR4E2, 30 μM CuCl2, read-out: EC50(μM) with 30 μM CuCl2), the concentration giving a half-maximal response (EC50) is 33 µM. Further, on consensus OR4E2, the “dose dependence of the response of consensus OR4E2” value is “dose-dependent response” and the “response of consensus OR4E2” value is given as “responded”.

What is called EC50 is the concentration at which the effect is half-maximal.
